Reference: ChEMBL document CHEMBL1201862, “PubChem BioAssay data set” (2004)
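The compound was tested at five concentrations on cells cultured in 96-well plates, with a 48-hour exposure period. The concentration for 50% growth inhibition is given as GI50.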 The source made the active and inactive calls. Rule as the data show it: active = GI50 up to about 1.1 µM and inactive = higher.

Tests used:
Assay in all cases: DTP human tumour cell line panel, 48 h
IGROV-1 = test system: IGROV-1
OVCAR-3 = test system: OVCAR-3
HCC 2998 = test system: HCC 2998
BT-549 = test system: BT-549
MDA-MB-435 = test system: MDA-MB-435
SN12C = test system: SN12C
SNB-75 = test system: SNB-75
OVCAR-4 = test system: OVCAR-4
ACHN = test system: ACHN
HCT-15 = test system: HCT-15
MCF7 = test system: MCF7
HT-29 = test system: HT-29
SNB-19 = test system: SNB-19
T47D = test system: T47D
SK-MEL-2 = test system: SK-MEL-2
OVCAR-5 = test system: OVCAR-5
SK-MEL-28 = test system: SK-MEL-28
SR = test system: SR
TK-10 = test system: TK-10
MDA-N = test system: MDA-N

Structure (SMILES)	GI50 (IGROV-1)	GI50 (OVCAR-3)	GI50 (HCC 2998)	GI50 (BT-549)	GI50 (MDA-MB-435)	GI50 (SN12C)	GI50 (SNB-75)	GI50 (OVCAR-4)	GI50 (ACHN)	GI50 (HCT-15) [µM]	GI50 (MCF7)	GI50 (HT-29)	GI50 (SNB-19)	GI50 (T47D)	GI50 (SK-MEL-2)	GI50 (OVCAR-5)	GI50 (SK-MEL-28)	GI50 (SR)	GI50 (TK-10)	GI50 (MDA-N)
COc1ccc(CCNC(=O)CCCCCO)cc1OC	> 100 µM (inactive)	> 100 µM (inactive)	> 100 µM (inactive)	> 100 µM (inactive)	> 100 µM (inactive)	> 100 µM (inactive)	> 100 µM (inactive)	> 100 µM (inactive)	> 100 µM (inactive)	> 100	> 100 µM (inactive)	> 100 µM (inactive)	> 100 µM (inactive)	> 100 µM (inactive)	> 100 µM (inactive)	> 100 µM (inactive)	> 100 µM (inactive)	> 100 µM (inactive)	> 100 µM (inactive)	–
Cc1noc(C)c1/N=N/c1ccc2nonc2c1N	> 100 µM (inactive)	> 100 µM (inactive)	> 100 µM (inactive)	–	> 100 µM (inactive)	> 100 µM (inactive)	15.1 µM (inactive)	> 100 µM (inactive)	> 100 µM (inactive)	> 100	> 100 µM (inactive)	> 100 µM (inactive)	26.1 µM (inactive)	> 100 µM (inactive)	> 100 µM (inactive)	> 100 µM (inactive)	> 100 µM (inactive)	> 100 µM (inactive)	58.7 µM (inactive)	> 100 µM (inactive)
O=C1CSC(c2ccccc2O)N1c1ccc(Oc2ccc(Cl)cc2)c(Cl)c1 (stereo not drawn)	8.91 µM (inactive)	18.6 µM (inactive)	17.7 µM (inactive)	13.1 µM (inactive)	21.5 µM (inactive)	22.1 µM (inactive)	17.6 µM (inactive)	20.7 µM (inactive)	28.2 µM (inactive)	19.5	26.6 µM (inactive)	19.7 µM (inactive)	22 µM (inactive)	11.7 µM (inactive)	24.3 µM (inactive)	21.6 µM (inactive)	19.5 µM (inactive)	14.3 µM (inactive)	36.1 µM (inactive)	–
COc1ccc2c(c1)N(C(C)=O)CN1C(=O)CCC21 (stereo not drawn)	> 100 µM (inactive)	> 100 µM (inactive)	> 100 µM (inactive)	–	> 100 µM (inactive)	> 100 µM (inactive)	> 100 µM (inactive)	> 100 µM (inactive)	> 100 µM (inactive)	> 100	> 100 µM (inactive)	> 100 µM (inactive)	> 100 µM (inactive)	> 100 µM (inactive)	> 100 µM (inactive)	> 100 µM (inactive)	> 100 µM (inactive)	–	> 100 µM (inactive)	> 100 µM (inactive)
Cc1ccnc(NC(=S)Nc2ccc([N+](=O)[O-])cc2)c1	46.2 µM (inactive)	–	> 100 µM (inactive)	> 100 µM (inactive)	> 100 µM (inactive)	–	44.6 µM (inactive)	> 100 µM (inactive)	> 100 µM (inactive)	> 100	> 100 µM (inactive)	> 100 µM (inactive)	> 100 µM (inactive)	> 100 µM (inactive)	> 100 µM (inactive)	–	> 100 µM (inactive)	> 100 µM (inactive)	> 100 µM (inactive)	–
CC12CC(=O)Nc3ccccc3N1C(c1ccccc1)=NO2 (stereo not drawn)	> 100 µM (inactive)	> 100 µM (inactive)	> 100 µM (inactive)	> 100 µM (inactive)	> 100 µM (inactive)	> 100 µM (inactive)	> 100 µM (inactive)	> 100 µM (inactive)	> 100 µM (inactive)	> 100	> 100 µM (inactive)	> 100 µM (inactive)	> 100 µM (inactive)	–	> 100 µM (inactive)	> 100 µM (inactive)	–	> 100 µM (inactive)	> 100 µM (inactive)	> 100 µM (inactive)
Cc1ccc2c(c1)C(=O)C1(Cc3ccccc3C1=O)C2 (stereo not drawn)	> 100 µM (inactive)	> 100 µM (inactive)	> 100 µM (inactive)	–	> 100 µM (inactive)	> 100 µM (inactive)	67.1 µM (inactive)	> 100 µM (inactive)	> 100 µM (inactive)	> 100	> 100 µM (inactive)	> 100 µM (inactive)	> 100 µM (inactive)	> 100 µM (inactive)	–	> 100 µM (inactive)	> 100 µM (inactive)	> 100 µM (inactive)	> 100 µM (inactive)	> 100 µM (inactive)
CCn1nc(-c2ccccc2)c2c1N(C)c1ccccc1-n1c(-c3ccccc3)nnc1-2	19.9 µM (inactive)	–	15.9 µM (inactive)	–	> 100 µM (inactive)	16.4 µM (inactive)	3.69 µM (inactive)	–	13.5 µM (inactive)	10.4	5.45 µM (inactive)	–	15.9 µM (inactive)	4.63 µM (inactive)	17.3 µM (inactive)	19.4 µM (inactive)	17.7 µM (inactive)	14.4 µM (inactive)	16 µM (inactive)	15.1 µM (inactive)
